Laboratory results: ChEMBL document CHEMBL1909046, “DrugMatrix in vitro pharmacology data”

Key:
[1] = molecular target: T1, Alpha-1A adrenergic receptor (Rattus norvegicus, UniProt P43140); assay: DRUGMATRIX: Alpha-1A adrenergic receptor radioligand binding (ligand: prazosin); format: cell membranes, Wistar, Submaxillary gland, Membrane; settings: Not Active = under 50% inhibition at 10 µM
T1 sequence (P43140 whole entry): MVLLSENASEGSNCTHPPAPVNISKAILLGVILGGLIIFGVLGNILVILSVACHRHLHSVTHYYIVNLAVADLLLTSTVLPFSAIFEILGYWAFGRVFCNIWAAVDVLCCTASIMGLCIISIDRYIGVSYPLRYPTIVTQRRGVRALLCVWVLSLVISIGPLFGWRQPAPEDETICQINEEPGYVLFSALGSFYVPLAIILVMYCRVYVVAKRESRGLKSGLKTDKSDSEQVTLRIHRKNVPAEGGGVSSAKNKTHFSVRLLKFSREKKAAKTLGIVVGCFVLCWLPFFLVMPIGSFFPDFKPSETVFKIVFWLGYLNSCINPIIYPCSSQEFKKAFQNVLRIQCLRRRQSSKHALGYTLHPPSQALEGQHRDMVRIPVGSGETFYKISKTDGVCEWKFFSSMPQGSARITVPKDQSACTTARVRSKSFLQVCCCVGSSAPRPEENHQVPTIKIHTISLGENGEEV

[2] = molecular target: C-C chemokine receptor type 5 (Homo sapiens, UniProt P51681); format: cell membranes, Membrane; settings: hek293; further: in other assays of this panel Not Active means under 50% inhibition at 10 µM
Chain of C-C chemokine receptor type 5 (P51681 whole entry): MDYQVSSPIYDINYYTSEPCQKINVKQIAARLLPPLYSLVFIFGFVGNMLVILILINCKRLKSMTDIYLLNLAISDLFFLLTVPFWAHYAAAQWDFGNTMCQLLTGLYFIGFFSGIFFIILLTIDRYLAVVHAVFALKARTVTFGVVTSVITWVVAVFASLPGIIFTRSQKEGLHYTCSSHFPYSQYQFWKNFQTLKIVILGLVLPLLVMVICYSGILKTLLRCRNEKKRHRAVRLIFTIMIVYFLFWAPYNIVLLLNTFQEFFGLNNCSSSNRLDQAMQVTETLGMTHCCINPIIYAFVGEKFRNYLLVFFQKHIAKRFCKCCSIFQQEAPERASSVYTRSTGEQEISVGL

[3] = molecular target: T2, Receptor-type tyrosine-protein phosphatase C (Homo sapiens, UniProt P08575); design: species or system Escherichia coli;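 further: inhibition of CD45 enzyme activity measured using DiFMUP as substrate; in other assays of this panel Not Active means under 50% inhibition at 10 µM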
T2 sequence (P08575 whole entry): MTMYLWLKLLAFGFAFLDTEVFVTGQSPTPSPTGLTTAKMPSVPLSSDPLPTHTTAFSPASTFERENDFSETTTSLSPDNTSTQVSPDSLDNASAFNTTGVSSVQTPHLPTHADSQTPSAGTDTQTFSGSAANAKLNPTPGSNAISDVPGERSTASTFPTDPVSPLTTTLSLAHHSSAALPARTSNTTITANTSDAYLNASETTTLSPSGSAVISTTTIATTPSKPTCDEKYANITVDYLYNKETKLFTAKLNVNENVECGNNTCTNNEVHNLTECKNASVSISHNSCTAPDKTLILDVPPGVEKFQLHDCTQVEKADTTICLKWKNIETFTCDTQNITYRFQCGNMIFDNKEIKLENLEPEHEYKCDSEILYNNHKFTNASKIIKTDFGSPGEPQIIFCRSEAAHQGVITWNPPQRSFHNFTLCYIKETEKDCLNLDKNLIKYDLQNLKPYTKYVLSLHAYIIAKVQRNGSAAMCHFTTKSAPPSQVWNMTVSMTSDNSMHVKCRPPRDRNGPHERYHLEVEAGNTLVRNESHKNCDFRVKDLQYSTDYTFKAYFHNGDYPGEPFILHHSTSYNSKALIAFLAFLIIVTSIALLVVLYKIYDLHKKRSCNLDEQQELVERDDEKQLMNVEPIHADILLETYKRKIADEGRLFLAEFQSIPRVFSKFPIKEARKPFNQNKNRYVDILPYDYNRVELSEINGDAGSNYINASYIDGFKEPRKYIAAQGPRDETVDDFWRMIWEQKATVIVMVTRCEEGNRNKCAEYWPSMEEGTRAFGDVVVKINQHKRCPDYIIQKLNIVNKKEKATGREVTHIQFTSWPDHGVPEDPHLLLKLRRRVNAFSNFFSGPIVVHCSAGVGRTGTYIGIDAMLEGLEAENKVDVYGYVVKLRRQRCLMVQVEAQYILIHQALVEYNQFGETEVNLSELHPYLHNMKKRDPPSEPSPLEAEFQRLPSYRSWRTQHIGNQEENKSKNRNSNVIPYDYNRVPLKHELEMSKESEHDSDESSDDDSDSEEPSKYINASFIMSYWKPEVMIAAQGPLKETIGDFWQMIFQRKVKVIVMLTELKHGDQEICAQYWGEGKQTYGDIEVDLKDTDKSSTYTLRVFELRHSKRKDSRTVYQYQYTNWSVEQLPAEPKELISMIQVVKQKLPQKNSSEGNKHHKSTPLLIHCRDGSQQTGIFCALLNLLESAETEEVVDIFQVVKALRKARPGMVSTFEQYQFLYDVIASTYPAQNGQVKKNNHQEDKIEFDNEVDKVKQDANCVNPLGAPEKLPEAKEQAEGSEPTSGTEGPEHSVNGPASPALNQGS

[4] = molecular target: T3, 5-hydroxytryptamine receptor 1A (Rattus norvegicus, UniProt P19327); format: cell membranes, CHO-K1, Membrane; settings: cho-k1; further: in other assays of this panel Not Active means under 50% inhibition at 10 µM
T3 sequence (P19327 whole entry): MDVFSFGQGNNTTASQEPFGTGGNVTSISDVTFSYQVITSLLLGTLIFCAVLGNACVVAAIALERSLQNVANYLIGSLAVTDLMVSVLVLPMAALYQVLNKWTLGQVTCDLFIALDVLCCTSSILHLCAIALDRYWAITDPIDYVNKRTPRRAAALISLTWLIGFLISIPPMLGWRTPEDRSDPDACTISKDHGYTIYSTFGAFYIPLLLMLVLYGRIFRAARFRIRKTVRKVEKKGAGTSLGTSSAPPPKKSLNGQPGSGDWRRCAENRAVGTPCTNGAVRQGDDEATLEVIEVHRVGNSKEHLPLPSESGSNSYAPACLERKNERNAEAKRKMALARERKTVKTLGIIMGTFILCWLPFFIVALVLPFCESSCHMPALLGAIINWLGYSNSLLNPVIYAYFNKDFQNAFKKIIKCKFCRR

Adenosine receptor A2a = Adenosine receptor A2a (Homo sapiens, UniProt P29274); assay: DRUGMATRIX: Adenosine A2A radioligand binding (ligand: […]); format: cell membranes, HEK293, Membrane; settings: hek293; Not Active = under 50% inhibition at 10 µM
Chain of Adenosine receptor A2a (P29274 whole entry): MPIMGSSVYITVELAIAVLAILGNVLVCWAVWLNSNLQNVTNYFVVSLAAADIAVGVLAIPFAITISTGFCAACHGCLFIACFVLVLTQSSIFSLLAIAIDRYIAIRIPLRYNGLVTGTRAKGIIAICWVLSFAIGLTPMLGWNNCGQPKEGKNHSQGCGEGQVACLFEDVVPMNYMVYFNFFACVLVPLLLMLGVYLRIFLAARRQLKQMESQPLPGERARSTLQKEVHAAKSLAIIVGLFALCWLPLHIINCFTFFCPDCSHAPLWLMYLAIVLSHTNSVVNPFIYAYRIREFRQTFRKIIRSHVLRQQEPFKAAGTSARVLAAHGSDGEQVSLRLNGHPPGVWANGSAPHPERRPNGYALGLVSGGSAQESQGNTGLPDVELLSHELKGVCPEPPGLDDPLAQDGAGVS

Molecule: OXALIPLATIN
- IC50 [1]: Not Active
- Ki [1]: Not Active
- IC50 [2]: Not Active
- Ki [2]: Not Active
- IC50 [3]: Not Active
- Ki [3]: Not Active
- IC50 [4]: Not Active
- Ki [4]: Not Active
- IC50 (Adenosine receptor A2a): Not Active
- Ki (Adenosine receptor A2a): Not Active

Molecule: CN(C)CCCC1(c2ccc(F)cc2)OCc2cc(C#N)ccc21 (stereo unspecified) [CITALOPRAM]
- IC50 ([1]; read-out: IC50): 1760 nM
- Ki ([1]; read-out: Ki): 711 nM
- IC50 [2]: Not Active
- IC50 [3]: Not Active
- IC50 [4]: Not Active
- IC50 (Adenosine receptor A2a): Not Active

Molecule: CCc1cccc2c3c([nH]c12)C(CC)(CC(=O)O)OCC3 (stereo unspecified) [ETODOLAC]
- IC50 [1]: Not Active
- IC50 [2]: Not Active
- IC50 [3]: Not Active
- IC50 [4]: Not Active
- IC50 (Adenosine receptor A2a): Not Active

Molecule: Cc1[nH]cnc1CN1CCc2c(c3ccccc3n2C)C1=O [ALOSETRON]
- IC50 [1]: Not Active
- IC50 [2]: Not Active
- IC50 [3]: Not Active
- IC50 [4]: Not Active
- IC50 (Adenosine receptor A2a): Not Active

Molecule: C/C=C1\[C@H]2C=C(C)C[C@]1(N)c1ccc(=O)[nH]c1C2 [HUPERZINE A]
- IC50 [1]: Not Active
- IC50 [2]: Not Active
- IC50 [3]: Not Active
- IC50 [4]: Not Active
- IC50 (Adenosine receptor A2a): Not Active

Molecule: O=c1[nH]cc(F)c(=O)[nH]1 [FLUOROURACIL]
- IC50 [1]: Not Active
- IC50 [2]: Not Active
- IC50 [3]: Not Active
- IC50 [4]: Not Active
- IC50 (Adenosine receptor A2a): Not Active

Molecule: O=C1OC2(c3ccc(O)cc3Oc3cc(O)ccc32)c2ccccc21 [FLUORESCEIN]
- IC50 [1]: Not Active
- IC50 [2]: Not Active
- IC50 [3]: Not Active
- IC50 [4]: Not Active
- IC50 (Adenosine receptor A2a): Not Active

Molecule: COC1=CC(=O)C[C@@H](C)[C@]12Oc1c(Cl)c(OC)cc(OC)c1C2=O [GRISEOFULVIN]
- IC50 [1]: Not Active
- IC50 [2]: Not Active
- IC50 [3]: Not Active
- IC50 [4]: Not Active
- IC50 (Adenosine receptor A2a): Not Active

Molecule: CARBOPLATIN
- IC50 [1]: Not Active
- Ki [1]: Not Active
- IC50 [2]: Not Active
- Ki [2]: Not Active
- IC50 [3]: Not Active
- Ki [3]: Not Active
- IC50 [4]: Not Active
- Ki [4]: Not Active
- IC50 (Adenosine receptor A2a): Not Active
- Ki (Adenosine receptor A2a): Not Active
